Experimental data published in US11530244B2, “Cyclic polypeptides for PCSK9 inhibition” (priority 2018, dated 2022).
Where two headings read alike, the source gives them in different places. Starred links: 1 amine or outer side, 2 acyl side, 3 side chain; linkers in the order of their positions; H or OH if unused. Positions of bridges follow the written chain, without caps; N, C: chain ends. Non-standard residues stand in square brackets, D forms with d. Residues, ends and D or L forms follow the SMILES beside them. Phe(3-CH2NH2) = O=C([C@H](Cc1cccc(CN[*:3])c1)N[*:1])[*:2]; Phe(4-COOH) = N[C@@H](Cc1ccc(C(=O)O)cc1)C(=O)O; Trp(5-F) = N[C@@H](Cc1c[nH]c2ccc(F)cc12)C(=O)O; dPro(cis-4-NH2) = N[C@H]1CN[C@@H](C(=O)O)C1; X3 = O=C(CCSCc1cc(F)cc(CSCCN[*:1])c1)[*:2]; Pro(cis-4-F) = O=C(O)[C@@H]1C[C@H](F)CN1; Lys(N3) = [N-]=[N+]=NCCCC[C@H](N)C(=O)O; X4 = O=C(CCSCc1cccc(CSCCN[*:1])c1)[*:2]; Orn(N3) = [N-]=[N+]=NCCC[C@H](N)C(=O)O; X40 = FC(F)(F)c1cc(C[*:1])cc(C[*:2])c1; AEF = NCCOc1ccc(C[C@H](N)C(=O)O)cc1; X53 = C#CCCC[C@H](N[*:1])C(=O)[*:2]; Glutaryl = O=C(CCCC(=O)[*:2])[*:1]; X7 = O=C(Cc1ccc(CN[*:1])cc1)[*:2]; aThr = C[C@H](O)[C@H](N)C(=O)O; αMeP = C[C@@]1(C(=O)O)CCCN1; Dab = NCC[C@H](N)C(=O)O; X2 = O=C(C[*:2])[*:1]; Ava = NCCCCC(=O)O; Mpa = O=C(O)CCS

Target: PCSK9 (Homo sapiens (Human), UniProt Q8NBP7)
Sequence (Q8NBP7 153-692): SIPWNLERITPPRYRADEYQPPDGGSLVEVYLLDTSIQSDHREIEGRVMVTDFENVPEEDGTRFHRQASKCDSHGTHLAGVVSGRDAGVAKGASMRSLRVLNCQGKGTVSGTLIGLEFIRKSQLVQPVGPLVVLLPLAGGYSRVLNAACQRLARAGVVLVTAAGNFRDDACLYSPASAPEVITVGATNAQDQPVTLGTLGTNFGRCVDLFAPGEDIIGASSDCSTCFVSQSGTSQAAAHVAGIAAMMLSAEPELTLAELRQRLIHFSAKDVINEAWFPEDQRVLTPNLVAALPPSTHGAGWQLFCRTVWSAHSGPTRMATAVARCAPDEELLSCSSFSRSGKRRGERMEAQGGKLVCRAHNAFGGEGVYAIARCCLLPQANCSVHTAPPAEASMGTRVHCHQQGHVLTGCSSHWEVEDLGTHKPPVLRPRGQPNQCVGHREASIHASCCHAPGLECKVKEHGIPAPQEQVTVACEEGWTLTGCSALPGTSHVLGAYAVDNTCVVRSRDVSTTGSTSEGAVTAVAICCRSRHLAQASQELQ
Assay: PCSK9 Alexa FRET Standard assay (displacement of AlexaFluor647 tagged cyclic peptide Reagent A)
Format: binding
Method: A solution containing 1 nM biotinylated PCSK9+2.5 nM Lance Streptavidin Europium (Strep-Eu) was made in 50 mM HEPES pH 7.4, 0.15 M NaCl, 5 mM CaCl2), 0.01% BSA, and 0.01% Surfactant P20. A separate solution containing 40 nM of the AlexaFluor tagged cyclic peptide was made in the same buffer system. An Echo was used to transfer 0.750 ul of compound to an assay plate followed by the addition of 15 ul of PCSK9+Stept-Eu and 15 ul of AF peptide. The final assay volume was 30.750 ul containing 0.5 nM PCSK9, 1.25 nM Strep-Eu, and 20 nM AF cyclic peptide. The reaction was incubated at room temperature for at least two hours prior to fluorescence measurements using an Envision Multilabel Reader. IC50 values were determined by fitting data to a sigmoidal dose-response curve using nonlinear regression. Ki was then calculated from the IC50 and the KD of AF cyclic peptide. Counts (B-counts) of the europium-labeled PCSK9 were followed to observe if compounds were […]. A fall off of the B-counts likely indicated a false positive of inhibition. Data from this procedure was reported as “A=‘numerical value’ (nanomolar)”

[1] = PCSK9 Alexa FRET Standard assay, 0.5 nM PCSK9, 20 nM AF cyclic peptide Reagent A, read-out: IC50

| IC50 [1] [µM] | Compound | IC50 (IC50) [µM] |
| --- | --- | --- |
| 21 to 50 | COc1ccc(C[C@@H]2NC(=O)[C@H]([C@@H](C)O)NC(=O)[C@@H]3CCCN3C(=O)[C@H](Cc3c[nH]c4ccc(F)cc34)NC(=O)[C@H](Cc3c[nH]c4ccc(F)cc34)NC(=O)[C@@H](C)NC(=O)[C@H](CCCCN)NC(=O)CCSCc3cc(cc(C(F)(F)F)c3)CSC[C@@H](C(N)=O)NC(=O)[C@]3(C)CCCN3C2=O)cc1 [Compound 073] ([Mpa]K[dA][Trp(5-F)][Trp(5-F)]PTY(Me)[αMeP]C-NH2; linker 1-10 via X40) |  |
|  | C#CCCC[C@@H]1NC(=O)[C@H](Cc2c[nH]c3ccc(F)cc23)NC(=O)[C@H](CCCCN=[N+]=[N-])NC(=O)[C@@H](C)NC(=O)[C@H](CCCCN)NC(=O)CCSCc2cccc(c2)CSCCNC(=O)[C@]2(C)CCCN2C(=O)[C@H](Cc2ccc(OC)cc2)NC(=O)[C@H]([C@H](C)O)NC1=O [Compound 074] (cyclo(K[dA][Lys(N3)][Trp(5-F)][X53][aThr]Y(Me)[αMeP][X4])) | 21 to 50 |
| 21 to 50 | COc1ccc(C[C@@H]2NC(=O)[C@H]([C@@H](C)O)NC(=O)[C@@H]3C[C@H](F)CN3C(=O)[C@H](Cc3c[nH]c4ccc(F)cc34)NC(=O)[C@H](Cc3c[nH]c4ccc(F)cc34)NC(=O)[C@@H](C)NC(=O)[C@H](CCCCN)NC(=O)[C@@H](NC(C)=O)CCNC(=O)COc3ccc(cc3)C[C@@H](C(N)=O)NC(=O)[C@]3(C)CCCN3C2=O)cc1 [Compound 075] (Ac-[Dab]K[dA][Trp(5-F)][Trp(5-F)][Pro(cis-4-F)]TY(Me)[αMeP]Y-NH2; linker 1-10 via X2) |  |
| 21 to 50 | COc1ccc(C[C@@H]2NC(=O)[C@H]([C@@H](C)O)NC(=O)[C@@H]3C[C@H](F)CN3C(=O)[C@H](Cc3c[nH]c4ccc(F)cc34)NC(=O)[C@H](Cc3c[nH]c4ccc(F)cc34)NC(=O)[C@@H](C)NC(=O)[C@H](CCCCN)NC(=O)[C@@H](NC(C)=O)CC(=O)NCc3cccc(c3)C[C@@H](C(N)=O)NC(=O)[C@]3(C)CCCN3C2=O)cc1 [Compound 077] (Ac-DK[dA][Trp(5-F)][Trp(5-F)][Pro(cis-4-F)]TY(Me)[αMeP][Phe(3-CH2NH2)]-NH2; lactam 1-10) |  |
| 0.1 to 1 | C#CCCC[C@@H]1NC(=O)[C@H](Cc2c[nH]c3ccc(F)cc23)NC(=O)[C@H](CCCN=[N+]=[N-])NC(=O)[C@@H](C)NC(=O)[C@H](C)NC(=O)CCSCc2cccc(c2)CSCCNC(=O)[C@]2(C)CCCN2C(=O)[C@H](Cc2ccc(OC)cc2)NC(=O)[C@H]([C@@H](C)O)NC1=O [Compound 078] (cyclo(A[dA][Orn(N3)][Trp(5-F)][X53]TY(Me)[αMeP][X4])) |  |
| 1 to 12.1 | COc1ccc(C[C@@H]2NC(=O)[C@H]([C@@H](C)O)NC(=O)[C@@H]3C[C@H](F)CN3C(=O)[C@H](Cc3c[nH]c4ccc(F)cc34)NC(=O)[C@H](Cc3c[nH]c4ccc(F)cc34)NC(=O)[C@@H](C)NC(=O)[C@H](CCCCN)NC(=O)[C@@H](NC(C)=O)CC(=O)NCc3ccccc3C[C@@H](C(N)=O)NC(=O)[C@]3(C)CCCN3C2=O)cc1 [Compound 079] |  |
| 0.1 to 1 | COc1ccc(C[C@@H]2NC(=O)[C@H]([C@@H](C)O)NC(=O)[C@@H]3C[C@H](F)CN3C(=O)[C@H](Cc3c[nH]c4ccc(F)cc34)NC(=O)[C@H](Cc3c[nH]c4ccc(F)cc34)NC(=O)[C@@H](C)NC(=O)CCCC(=O)NCCOc3ccc(cc3)C[C@@H](C(N)=O)NC(=O)[C@]3(C)CCCN3C2=O)cc1 [Compound 081] ([dA][Trp(5-F)][Trp(5-F)][Pro(cis-4-F)]TY(Me)[αMeP][AEF]-NH2; linker N-8 via Glutaryl) |  |

| Compound | IC50 [1] [µM] | IC50 (IC50) [µM] |
| --- | --- | --- |
| COc1ccc(C[C@@H]2NC(=O)[C@H]([C@@H](C)O)NC(=O)[C@@H]3C[C@H](F)CN3C(=O)[C@H](Cc3c[nH]c4ccc(F)cc34)NC(=O)[C@H](Cc3c[nH]c4ccc(F)cc34)NC(=O)[C@@H](C)NC(=O)CCCCNC(=O)c3ccc(cc3)C[C@@H](C(N)=O)NC(=O)[C@]3(C)CCCN3C2=O)cc1 [Compound 076] ([Ava][dA][Trp(5-F)][Trp(5-F)][Pro(cis-4-F)]TY(Me)[αMeP][Phe(4-COOH)]-NH2; lactam N-9) | 0.1 to 1 |  |
| COc1ccc(C[C@@H]2NC(=O)[C@@H]([C@H](C)O)NC(=O)[C@@H]3C[C@H](F)CN3C(=O)[C@H](Cc3c[nH]c4ccc(F)cc34)NC(=O)[C@H](Cc3c[nH]c4ccc(F)cc34)NC(=O)[C@@H](C)NC(=O)Cc3ccc(cc3)CNC(=O)c3ccc(cc3)C[C@@H](C(N)=O)NC(=O)[C@]3(C)CCCN3C2=O)cc1 [Compound 080] ([X7][dA][Trp(5-F)][Trp(5-F)][Pro(cis-4-F)][dT]Y(Me)[αMeP][Phe(4-COOH)]-NH2; lactam N-9) | 1 to 12.1 |  |
| COc1ccc(C[C@@H]2NC(=O)[C@@H]([C@H](C)O)NC(=O)[C@H]3C[C@@H](N)CN3C(=O)[C@H](Cc3c[nH]c4ccc(F)cc34)NC(=O)[C@H](Cc3c[nH]c4ccc(F)cc34)NC(=O)[C@@H](C)NC(=O)[C@H](CCCCN)NC(=O)CCSCc3cc(F)cc(c3)CSCCNC(=O)[C@]3(C)CCCN3C2=O)cc1 [Compound 082] (cyclo(K[dA][Trp(5-F)][Trp(5-F)][dPro(cis-4-NH2)][dT]Y(Me)[αMeP][X3])) | 0.1 to 1 |  |
